Results taken from the supplement of paper PMC10307832.

Legend:
Assay in all cases: relative viability (nuclei count vs DMSO), 5 days (fraction); higher = more cells survive
[1] = compound: CN[C@@H]1C[C@H]2O[C@@](C)([C@@H]1OC)n1c3ccccc3c3c4c(c5c6ccccc6n2c5c31)C(=O)NC4 [Staurosporine] + Nc1ncn([C@H]2C[C@H](O)[C@@H](CO)O2)c(=O)n1 [Decitabine] (partner 2 µM)
Method in brief: (§1)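 Relative viability divides the nuclei count in treated wells by that in vehicle wells. Lung cancer cell lines were seeded in 1536-well plates, dosed by pin tool the next day, and fixed and stained after 5 days in one step with final 0.05% Triton X-100, 1% formaldehyde and 1 ug/ml Hoechst. Dosing was a single drug or a fixed anchor-drug dose plus five library-drug doses (not always all listed) in √10 steps, and values are medians of duplicate plates imaged at 4×.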

[2] = compound: O=c1[nH]cc(F)c(=O)[nH]1 [5-Fluorouracil] + Cc1nc(NC(=O)N2CCC[C@H]2C(N)=O)sc1-c1ccnc(C(C)(C)C(F)(F)F)c1 [Alpelisib] (partner 2 µM)
Method in brief: as §1

[3] = compound: CN[C@@H]1C[C@H]2O[C@@](C)([C@@H]1OC)n1c3ccccc3c3c4c(c5c6ccccc6n2c5c31)C(=O)NC4 [Staurosporine] + COc1cc2c(Oc3ccc(NC(=O)C4(C(=O)Nc5ccc(F)cc5)CC4)cc3F)ccnc2cc1OCCCN1CCOCC1 [Foretinib] (partner 0.25 µM)
Method in brief: as §1

Sulindac + Linsitinib = compound: CC1=C(CC(=O)O)c2cc(F)ccc2/C1=C\c1ccc([S+](C)[O-])cc1 [Sulindac] + C[C@]1(O)C[C@@H](c2nc(-c3ccc4ccc(-c5ccccc5)nc4c3)c3c(N)nccn32)C1 [Linsitinib] (partner 1 µM)
Method in brief: as §1

| Cell Line | relative viability ([1]; first compound 0.005 µM) | relative viability ([1]; first compound 0.01581 µM) | relative viability ([1]; first compound 0.05 µM) | relative viability ([1]; first compound 0.1581 µM) | relative viability ([1]; first compound 0.5 µM) | relative viability ([2]; first compound 0.02 µM) | relative viability ([2]; first compound 0.2 µM) | relative viability ([2]; first compound 0.6325 µM) | relative viability ([2]; first compound 2 µM) | relative viability ([3]; first compound 0.005 µM) | relative viability ([3]; first compound 0.01581 µM) | relative viability ([3]; first compound 0.05 µM) | relative viability ([3]; first compound 0.1581 µM) | relative viability ([3]; first compound 0.5 µM) | relative viability (Sulindac + Linsitinib; first compound 0.08 µM) | relative viability (Sulindac + Linsitinib; first compound 0.253 µM) | relative viability (Sulindac + Linsitinib; first compound 0.8 µM) | relative viability (Sulindac + Linsitinib; first compound 2.53 µM) | relative viability (Sulindac + Linsitinib; first compound 8 µM) |
| --- | --- | --- | --- | --- | --- | --- | --- | --- | --- | --- | --- | --- | --- | --- | --- | --- | --- | --- | --- |
| PC-14 | 0.22 | 0.137 | 0.0771 | 0.0491 | 0.0544 | 1.02 | 0.962 | 0.748 | 0.424 | 0.929 | 0.718 | 0.38 | 0.102 | 0.0787 | 1.01 | 1.02 | 0.708 | 1.02 | 1.07 |
| HARA | 0.479 | 0.334 | 0.249 | 0.15 | 0.179 | 0.902 | 0.925 | 0.809 | 0.748 | 0.77 |  | 0.327 | 0.184 | 0.258 | 1.23 | 1.09 |  | 1.06 | 0.851 |
| NCI-H23 | 0.309 | 0.213 | 0.203 | 0.163 | 0.161 | 0.687 | 0.728 | 0.425 | 0.312 | 0.898 |  | 0.43 | 0.258 | 0.387 | 0.584 | 0.6 | 0.32 | 0.678 | 0.758 |
| LCLC-97TM1 | 0.257 | 0.198 | 0.217 | 0.217 | 0.223 | 0.205 | 0.224 | 0.208 | 0.161 | 0.988 | 0.558 | 0.454 | 0.382 | 0.461 | 0.187 | 0.167 | 0.157 |  | 0.209 |
| LC-2-ad | 0.765 | 0.695 | 0.623 | 0.167 | 0.166 | 0.878 | 0.884 | 0.514 | 0.339 | 0.845 | 0.537 | 0.236 | 0.175 | 0.169 | 0.938 | 0.795 | 0.816 | 0.881 | 0.933 |
| NCI-H1666 | 0.685 | 0.522 | 0.559 | 0.476 | 0.454 | 0.823 | 0.442 | 0.35 | 0.306 | 0.668 | 0.513 | 0.545 | 0.391 | 0.359 |  | 0.797 | 0.854 | 0.779 | 0.854 |
| EKVX | 0.31 | 0.271 | 0.202 | 0.191 | 0.18 | 0.7 |  | 0.153 | 0.147 | 0.355 | 0.133 | 0.379 | 0.246 | 0.123 | 0.872 | 1 | 0.721 | 0.92 | 1.04 |
| SW 1573 | 0.227 | 0.15 | 0.135 | 0.0749 | 0.067 | 0.705 | 0.877 | 0.867 | 0.507 | 0.852 | 0.943 | 0.203 | 0.176 | 0.104 | 0.834 | 0.788 | 0.804 | 0.95 | 0.722 |
| HCC-827 | 0.34 | 0.274 | 0.288 | 0.211 | 0.189 | 0.777 | 0.888 | 0.681 | 0.451 | 1.06 | 0.589 | 0.645 | 0.381 | 0.395 | 0.932 | 0.939 | 0.988 | 0.937 | 0.967 |
| NCI-H727 | 0.859 | 0.587 | 0.432 | 0.393 | 0.316 | 0.545 | 0.582 | 0.641 | 0.577 | 0.652 | 0.542 | 0.428 | 0.37 | 0.29 | 0.29 | 0.224 | 0.27 | 0.243 | 0.34 |
| CAL-12T |  |  |  |  |  | 1.47 | 1.22 | 1.02 | 0.425 | 0.523 | 0.319 | 0.186 | 0.168 | 0.121 | 0.787 | 0.858 | 0.593 | 0.795 | 0.705 |
| NCI-H1648 | 0.43 | 0.223 | 0.28 | 0.313 | 0.287 |  |  |  |  |  |  |  |  |  |  |  |  |  |  |
| NCI-H522 | 0.502 | 0.678 | 0.643 | 0.617 | 0.564 |  |  |  |  |  |  |  |  |  |  |  |  |  |  |
| IA-LM |  |  |  |  |  | 0.682 | 0.37 | 0.175 | 0.182 | 0.423 | 0.109 | 0.139 | 0.1 | 0.0733 | 0.527 | 0.681 |  | 0.826 | 0.423 |
| EPLC-272H | 0.367 | 0.193 | 0.203 | 0.102 | 0.0597 | 0.91 | 0.834 | 0.429 | 0.371 | 0.608 | 0.136 | 0.174 | 0.0912 | 0.121 | 1.04 |  | 0.751 | 1.17 | 1.15 |
| A-427 | 0.573 | 0.448 | 0.282 | 0.18 | 0.149 | 1.06 | 1.12 | 0.957 |  | 1.06 | 0.78 | 0.282 | 0.198 | 0.121 | 1.1 | 1.14 | 1.11 | 1.14 | 1.11 |
| NCI-H661 | 0.555 | 0.484 | 0.436 | 0.267 | 0.186 | 0.598 | 1.12 | 0.597 | 0.612 | 1.13 | 0.571 | 0.481 | 0.27 | 0.216 | 0.585 | 0.564 | 0.501 | 0.637 | 0.711 |
| NCI-H1993 | 0.665 | 0.604 | 0.573 | 0.44 | 0.354 | 0.687 | 0.569 | 0.608 | 0.698 | 0.818 | 0.701 | 0.586 | 0.535 | 0.489 | 0.741 | 0.674 | 0.789 | 0.735 | 0.82 |
| NCI-H358 | 0.244 | 0.213 | 0.121 | 0.0796 | 0.0666 | 0.935 | 0.817 | 1.04 | 0.434 | 0.835 | 0.241 | 0.11 | 0.0647 | 0.0577 | 0.777 | 0.881 | 0.643 | 0.661 | 1.09 |
